{"source": "patent US20110053773A1", "about": "“METHODS OF IMPROVING NUTRITIONAL VALUE OF PLANTS” (UNIVERSITY OF TENNESSEE RESEARCH FOUNDATION, priority 2009, published 2011)", "system": "switchgrass \"Alamo\"", "experiment": "Sugar content of switchgrass after isoxaben (Example 6)", "type": "in vivo", "conditions": "1120 g ai/ha + 1% v/v crop oil concentrate POST; harvested 8 weeks after application; % of fresh weight basis", "experimental": "Switchgrass was harvested 8 weeks after application and three replicates were analyzed compared with an untreated check. Sugar content was assessed on a percentage of the fresh weight and values were converted to a percentage of values derived from the untreated control. Isoxaben increased fructose by 44%, glucose by 33%, and total sugars by 38% in comparison to the untreated check. Switchgrass is currently under evaluations as a biofuels crop whereby enhanced sugar output per acre is desired.", "data": [{"smiles": "CCC(C)(CC)c1cc(NC(=O)c2c(OC)cccc2OC)on1", "note": "[Isoxaben, isoxaben]", "values": [{"measurement": "fructose increase in comparison to the untreated check", "result": 44, "unit": "%"}, {"measurement": "glucose increase in comparison to the untreated check", "result": 33, "unit": "%"}, {"measurement": "total sugars increase in comparison to the untreated check", "result": 38, "unit": "%"}]}]}
